In article PMC12153776, “Synthesis and Preliminary Cytotoxicity Evaluation of 3-Lup-20(29)-Ene-3β,28-Diol Glycoconjugates Containing a Succinic Linker and a 1,2,3-Triazole Ring” (Cancers, 2025):

Assays:
[1] = tested on: MCF-7 (human breast adenocarcinoma cell line); assay: MTT cytotoxicity assay, MCF-7 cells; type: cell-based; settings: for IC50: Homo sapiens, MCF7, 72 h, MTT, incubation 72 h
Procedure: (§1) For biological studies three different cell lines were used: the NHDF-Neo cell line (Lonza, Poland), the HCT-116 cell line (American Type Culture Collection, ATCC, Manassas, VA, USA), and the MCF-7 cell line (purchased by the Maria Sklodowska-Curie Memorial Cancer Center and Institute of Oncology, Gliwice, Poland and gifted for our research). Cells were cultured in 96-well plates (Sarstedt, Nümbrecht, Germany) using RPMI 1640 or DMEM/F12 media (100 µL per well) supplemented with fetal bovine serum (FBS, EURx, Gdańsk, Poland), and with Antibiotic–Antimycotic Solution (Avantor, Gliwice, Poland). Cells were seeded and incubated for 24 h prior to treatment: […] Stock solutions of the tested compounds were prepared in DMSO and stored under appropriate conditions. Immediately prior to the experiment, these solutions were diluted to the desired concentrations using a growth medium. In no dilution was the DMSO content higher than 1% v/v. The resulting solutions were then used to treat cells (100 µL per well). […] In parallel, the influence of copper ions on cellular proliferation was investigated. In this case, the procedure was analogous to the previously described one, with the difference that glycoconjugates were added in the culture medium with the addition of CuCl2. […] ACROS Organics) was applied following the manufacturer’s protocol. Absorbance of the formazan, formed during the test and dissolved in 100 µL of DMSO, was measured spectrophotometrically at 570 nm using a plate reader (Epoch, Bio-Tek, Winooski, VT, USA). The measured absorbance was analyzed to assess proliferation, where tested samples were compared with the untreated controls (100%). The results from MTT were presented as the mean of three experiments (biological replicates). For each experimental condition within a replicate, four technical repetitions were performed. Technical repetitions were averaged to obtain a single value per replicate. Statistical analyses were conducted using means of the biological replicates. The percentage of viable cells and the standard deviation (SD) were calculated in Excel (Microsoft Office 365, A3 for faculty), using the STDEV.S formula, which determines the standard deviation for a sample set. […] The results are expressed as the average value ± standard deviation (SD). To evaluate statistical significance, two-way analysis of variance (ANOVA) with replication was performed to assess the effects of compound type and concentration on cell proliferation. When significant main effects were observed (p < 0.05), pairwise comparisons between betulin (BN) and each analogue at corresponding concentrations were conducted using two-tailed unpaired t-tests. […] All statistical tests were performed in Excel. […] Two cancer cell lines were chosen for the study: HCT 116 (colorectal carcinoma cell line) and MCF-7 (human breast adenocarcinoma cell line). This selection was not random, as in both types of cancer cell lines overexpression of glucose and galactose transporters is observed. To determine if glycoconjugation enhanced the selectivity of the betulin derivatives, cytotoxicity tests on Normal Human Dermal Fibroblast-Neonatal cells (NHDF-Neo) were also conducted. The selection of this healthy cell line, so atypical in relation to the cancer cells tested, was based on the desire to compare the selectivity index determined for the currently obtained glycoconjugates with the results obtained for the betulin derivatives we described earlier and draw preliminary conclusions on structure-selectivity relationships. […] The incubation time for individual cell lines varied from 24 to 72 h, due to differences in the doubling time of these cell lines.

[2] = tested on: HCT 116 (colorectal carcinoma cell line); assay: cells; type: cell-based, human; settings: Homo sapiens, MTT
Procedure: as §1, with “Poland).” for “Poland). Cells were seeded and incubated for 24 h prior to treatment:”, “proliferation.” for “proliferation. When significant main effects were observed (p < 0.05), pairwise comparisons between betulin (BN) and each analogue at corresponding concentrations were conducted using two-tailed unpaired t-tests.”, “conducted.” for “conducted. The selection of this healthy cell line, so atypical in relation to the cancer cells tested, was based on the desire to compare the selectivity index determined for the currently obtained glycoconjugates with the results obtained for the betulin derivatives we described earlier and draw preliminary conclusions on structure-selectivity relationships.”

[3] = tested on: Normal Human Dermal Fibroblast-Neonatal cells (NHDF-Neo); assay: MTT cytotoxicity assay, healthy NHDF-Neo cells; type: cell-based; settings: 24 h, incubation 24 h
Procedure: as §1, with “Poland).” for “Poland). Cells were seeded and incubated for 24 h prior to treatment:”, “proliferation.” for “proliferation. When significant main effects were observed (p < 0.05), pairwise comparisons between betulin (BN) and each analogue at corresponding concentrations were conducted using two-tailed unpaired t-tests.”, “conducted.” for “conducted. The selection of this healthy cell line, so atypical in relation to the cancer cells tested, was based on the desire to compare the selectivity index determined for the currently obtained glycoconjugates with the results obtained for the betulin derivatives we described earlier and draw preliminary conclusions on structure-selectivity relationships.”

[4] = tested on: healthy cells; set-up: method as in PMID 33353244; settings: previous study; cited from earlier work
[5] = tested on: MCF-7 cell line; set-up: method as in PMID 33353244; settings: previous study; cited from earlier work
[6] = HCT-116, 24 h, incubation 24 h, no copper added
[7] = HCT-116, 48 h, incubation 48 h, addition of CuCl2 at 20 µM
[8] = HCT-116, 48 h, incubation 48 h, no copper added

## C=C(C)[C@@H]1CC[C@]2(COC(=O)CCC(=O)OCc3cn(CCO[C@@H]4O[C@H](COC(C)=O)[C@@H](OC(C)=O)[C@H](OC(C)=O)[C@H]4OC(C)=O)nn3)CC[C@]3(C)C(CCC4[C@@]5(C)CC[C@H](O)C(C)(C)C5CC[C@]43C)C12 (stereo partly shown) [7c]
[1]; addition of CuCl2 at 20 µM
  IC50: 118 ± 1.42 µM
  SI MCF-7 (ratio of IC50 of NHDF-Neo to IC50 of cancer cells): >1.7
[1]; no copper added
  IC50: 135 ± 7.92 µM
  SI MCF-7 (ratio of IC50 of NHDF-Neo to IC50 of cancer cells): >1.5
[2]; [6]
  IC50: > 200 µM
[2]; [7]
  IC50: > 200 µM
[2]; [8]
  IC50: > 200 µM
[3]; addition of CuCl2 at 20 µM
  IC50: > 200 µM
[3]; no copper added
  IC50: > 200 µM

## C=C(C)C1CCC2(COC(=O)Cn3cc(CO)nn3)CCC3(C)C(CCC4C5(C)CCC(OC(=O)Cn6cc(CO)nn6)C(C)(C)C5CCC43C)C12 (stereo not shown) [3,28-O,O’-bis(2-(4-(hydroxymethyl-1H-1,2,3-triazol-1-yl)acetyl)betulin]
[4]
  toxicity against healthy cells: showed toxicity against healthy cells
[5]
  in vitro activity against the MCF-7 cell line: unexpectedly high in vitro activity

## C=C(C)[C@@H]1CC[C@]2(COC(=O)CCC(=O)OCc3cn(CCO)nn3)CC[C@]3(C)C(CCC4[C@@]5(C)CC[C@H](OC(C)=O)C(C)(C)C5CC[C@]43C)C12 (stereo partly shown) [9a]
[1]; addition of CuCl2 at 20 µM
  IC50: 139 ± 6.21 µM
[1]; no copper added
  IC50: 148 ± 8.71 µM
  SI MCF-7 (ratio of IC50 of NHDF-Neo to IC50 of cancer cells): >1.4
[2]; HCT-116, 24 h, incubation 24 h, addition of CuCl2 at 20 µM
  IC50: > 200 µM
[2]; [6]
  IC50: > 200 µM
[2]; [7]
  IC50: > 200 µM
[2]; [8]
  IC50: > 200 µM
[3]; addition of CuCl2 at 20 µM
  IC50: > 200 µM
[3]; no copper added
  IC50: > 200 µM

## C=C(C)[C@@H]1CC[C@]2(COC(=O)CCC(=O)OCc3cn([C@@H]4O[C@H](COCc5ccccc5)[C@@H](OCc5ccccc5)[C@H](OCc5ccccc5)[C@H]4OCc4ccccc4)nn3)CC[C@]3(C)C(CCC4[C@@]5(C)CC[C@H](OC(C)=O)C(C)(C)C5CC[C@]43C)C12 (stereo partly shown) [5b]
[1]; no copper added
  IC50: 168 ± 11.7 µM
  SI MCF-7 (ratio of IC50 of NHDF-Neo to IC50 of cancer cells): >1.2
[2]; [6]
  IC50: > 200 µM
[2]; [8]
  IC50: > 200 µM
[3]; no copper added
  IC50: > 200 µM
